From US20250017928A1, “OPHTHALMIC PHARMACEUTICAL COMPOSITIONS CONTAINING A NITRIC OXIDE-RELEASING PHOSPHODIESTERASE 5 INHIBITOR AND METHOD FOR THE PREPARATION THEREOF” (Nicox SA, priority 2021, published 2025)

Assay: Aqueous solubility of Compound (I) and its salts
Assay type: physicochemical
Conditions: aqueous medium; free base
From the text: In an effort to enhance the solubility of Compound (I) in aqueous vehicle, ‘salt forms’ of Compound (I) were explored.

solubility: 13 µg/mL
SMILES: COc1ccc(CNc2nc(N3CCC[C@H]3COC(=O)CCCCCO[N+](=O)[O-])ncc2C(=O)NCc2ncccn2)cc1Cl [Compound (I), [(2S)-1-(4-{[(3-chloro-4-methoxyphenyl)methyl]amino}-5-{[(pyrimidin-2-yl)methyl]carbamoyl}pyrimidin-2-yl)pyrrolidin-2-yl]methyl 6-(nitrooxy)hexanoate]
